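Following 48 hours of exposure in 96-well plates, responses at five concentrations were used to interpolate endpoints linearly. At the GI50, growth is halved.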 Activity calls are given as the source filed them. Cut-off read from the data, not from the text of the source: active = GI50 up to about 1.1 µM and inactive = higher.
How the values were obtained:
Experiment in all cases: growth of human tumour cells (NCI), 48 h
SF-268 = tested on: SF-268
BT-549 = tested on: BT-549
NCI-H23 = tested on: NCI-H23
U-251 = tested on: U-251
HCC 2998 = tested on: HCC 2998
LOX IMVI = tested on: LOX IMVI
SR = tested on: SR
A498 = tested on: A498
HOP-62 = tested on: HOP-62
COLO 205 = tested on: COLO 205
OVCAR-8 = tested on: OVCAR-8
NCI-H522 = tested on: NCI-H522
SF-295 = tested on: SF-295
SNB-75 = tested on: SNB-75
TK-10 = tested on: TK-10
IGROV-1 = tested on: IGROV-1
CCRF-CEM = tested on: CCRF-CEM
A549 = tested on: A549
HOP-92 = tested on: HOP-92

| SMILES | GI50 (SF-268) | GI50 (BT-549) | GI50 (NCI-H23) | GI50 (U-251) | GI50 (HCC 2998) | GI50 (LOX IMVI) | GI50 (SR) | GI50 (A498) | GI50 (HOP-62) | GI50 (COLO 205) | GI50 (OVCAR-8) | GI50 (NCI-H522) | GI50 (SF-295) | GI50 (SNB-75) | GI50 (TK-10) | GI50 (IGROV-1) | GI50 (CCRF-CEM) | GI50 (A549) | GI50 (HOP-92) |
| --- | --- | --- | --- | --- | --- | --- | --- | --- | --- | --- | --- | --- | --- | --- | --- | --- | --- | --- | --- |
| CNC(=S)Nc1sc2c(c1C#N)CCCC2 | > 75 µM (inactive) | > 75 µM (inactive) | > 75 µM (inactive) | > 75 µM (inactive) | > 75 µM (inactive) | > 75 µM (inactive) | > 75 µM (inactive) | > 75 µM (inactive) | > 75 µM (inactive) | > 75 µM (inactive) | > 75 µM (inactive) | > 75 µM (inactive) | > 75 µM (inactive) | > 75 µM (inactive) | > 75 µM (inactive) | > 75 µM (inactive) | – | – | – |
| COc1cc(C2c3c(ccc4ccccc34)C(=O)C3CCC(=O)N32)cc(OC)c1OC (stereo not given) | > 50 µM (inactive) | > 50 µM (inactive) | > 50 µM (inactive) | > 50 µM (inactive) | – | – | 48.4 µM (inactive) | > 50 µM (inactive) | > 50 µM (inactive) | > 50 µM (inactive) | > 50 µM (inactive) | 25.5 µM (inactive) | > 50 µM (inactive) | > 50 µM (inactive) | – | > 50 µM (inactive) | > 50 µM (inactive) | > 50 µM (inactive) | > 50 µM (inactive) |
| Cc1c2cccc-2ccc2c1[nH]c1ccccc12 | 2.04 µM (inactive) | 3.24 µM (inactive) | 2.77 µM (inactive) | 1.66 µM (inactive) | – | 2.55 µM (inactive) | 3.05 µM (inactive) | 13.6 µM (inactive) | 3.49 µM (inactive) | 1.89 µM (inactive) | 2.54 µM (inactive) | 1.93 µM (inactive) | 2.38 µM (inactive) | 2.14 µM (inactive) | 2.32 µM (inactive) | 2 µM (inactive) | 1.27 µM (inactive) | 2.22 µM (inactive) | 2.83 µM (inactive) |
| O=c1[nH]c2ccc(CC(=S)N3CCN(c4ccccc4)CC3)cc2s1 | 26.1 µM (inactive) | 26.6 µM (inactive) | 20.7 µM (inactive) | 3.95 µM (inactive) | – | 67 µM (inactive) | 19.9 µM (inactive) | 62.2 µM (inactive) | 16.6 µM (inactive) | 57.1 µM (inactive) | 14.3 µM (inactive) | – | 12.9 µM (inactive) | – | 36.6 µM (inactive) | 9.16 µM (inactive) | 68.9 µM (inactive) | – | – |
| CCCCCCCCCCCCCCCCCCOc1ccc(/C=C/C2=[N+](CCCl)CCO2)cc1 | – | > 100 µM (inactive) | – | 50.4 µM (inactive) | – | > 100 µM (inactive) | 30.9 µM (inactive) | > 100 µM (inactive) | > 100 µM (inactive) | 70.1 µM (inactive) | > 100 µM (inactive) | 0.796 µM (active) | > 100 µM (inactive) | 3.54 µM (inactive) | > 100 µM (inactive) | 67.6 µM (inactive) | > 100 µM (inactive) | > 100 µM (inactive) | > 100 µM (inactive) |
| CC(C)CC(NC=O)C(=O)NC(Cc1ccccc1)NC(=O)CNC(=O)C(C)NC(=O)C(N)Cc1ccc(O)cc1 (stereo not given) | > 100 µM (inactive) | > 100 µM (inactive) | > 100 µM (inactive) | > 100 µM (inactive) | – | > 100 µM (inactive) | > 100 µM (inactive) | 64.6 µM (inactive) | > 100 µM (inactive) | > 100 µM (inactive) | > 100 µM (inactive) | > 100 µM (inactive) | > 100 µM (inactive) | > 100 µM (inactive) | > 100 µM (inactive) | > 100 µM (inactive) | – | > 100 µM (inactive) | > 100 µM (inactive) |
| CC12CC(c3ccccc3O1)C(C(=O)Nc1ccc(F)cc1)C(=O)N2 (stereo not given) | > 100 µM (inactive) | 38.5 µM (inactive) | 44.6 µM (inactive) | > 100 µM (inactive) | > 100 µM (inactive) | > 100 µM (inactive) | 73.1 µM (inactive) | > 100 µM (inactive) | > 100 µM (inactive) | > 100 µM (inactive) | 36 µM (inactive) | 63.2 µM (inactive) | – | – | – | 49.1 µM (inactive) | 28.2 µM (inactive) | 91 µM (inactive) | – |
| CCOC(=O)c1c2ccccc2n2c(N)c(C(N)=O)nnc12 | 16 µM (inactive) | 22.1 µM (inactive) | 16.7 µM (inactive) | 15.2 µM (inactive) | > 100 µM (inactive) | 28.2 µM (inactive) | > 100 µM (inactive) | 21 µM (inactive) | 17.3 µM (inactive) | > 100 µM (inactive) | 16.1 µM (inactive) | 28.8 µM (inactive) | 33.1 µM (inactive) | 11.7 µM (inactive) | 11.3 µM (inactive) | 1.33 µM (inactive) | > 100 µM (inactive) | > 100 µM (inactive) | – |
| COc1c(C)c(C/C=C(\C)CC/C=C(\C)CCC=C(C)C)c(OC)c(OC)c1OC | > 100 µM (inactive) | > 100 µM (inactive) | > 100 µM (inactive) | > 100 µM (inactive) | 54.6 µM (inactive) | 76.6 µM (inactive) | 66.4 µM (inactive) | – | > 100 µM (inactive) | > 100 µM (inactive) | > 100 µM (inactive) | 41.3 µM (inactive) | 75 µM (inactive) | > 100 µM (inactive) | > 100 µM (inactive) | > 100 µM (inactive) | 56.5 µM (inactive) | 49.3 µM (inactive) | > 100 µM (inactive) |
| CC(O)CCNC(=O)Nc1c(C(F)(F)F)cc(-c2ccccc2)[nH]c1=O (stereo not given) | > 100 µM (inactive) | > 100 µM (inactive) | > 100 µM (inactive) | > 100 µM (inactive) | > 100 µM (inactive) | > 100 µM (inactive) | – | > 100 µM (inactive) | > 100 µM (inactive) | > 100 µM (inactive) | > 100 µM (inactive) | > 100 µM (inactive) | > 100 µM (inactive) | > 100 µM (inactive) | > 100 µM (inactive) | > 100 µM (inactive) | > 100 µM (inactive) | > 100 µM (inactive) | > 100 µM (inactive) |
| C[C@H](C(=O)N1C(=O)O[C@@H](c2ccccc2)[C@H]1C)[C@H](c1ccccc1)N(Cc1ccccc1)OC(=O)c1ccccc1 | 33.8 µM (inactive) | 38.3 µM (inactive) | 65.3 µM (inactive) | 31.9 µM (inactive) | 21.6 µM (inactive) | 45.3 µM (inactive) | – | > 100 µM (inactive) | 18.9 µM (inactive) | 38.5 µM (inactive) | 37.5 µM (inactive) | 29.1 µM (inactive) | 21.6 µM (inactive) | 29.9 µM (inactive) | 90.6 µM (inactive) | 29.2 µM (inactive) | 37.2 µM (inactive) | 32.9 µM (inactive) | 24.4 µM (inactive) |
| COc1cc(/C=C2\CC/C(=C\c3cc(OC)c(O)c(OC)c3)C2=O)cc(OC)c1O | 2.3 µM (inactive) | 2.69 µM (inactive) | 1.98 µM (inactive) | 2.06 µM (inactive) | 1.67 µM (inactive) | 2.29 µM (inactive) | 2.88 µM (inactive) | 1.01 µM (active) | 3.13 µM (inactive) | 17.1 µM (inactive) | 3.01 µM (inactive) | 0.798 µM (active) | 3.98 µM (inactive) | 1.19 µM (inactive) | 5.32 µM (inactive) | 0.881 µM (active) | 1.85 µM (inactive) | 3.19 µM (inactive) | – |
| COc1ccc2oc3c(C)cc4c(OC)nnc(OC)c4c3c2c1 | 6.53 µM (inactive) | > 100 µM (inactive) | 17.9 µM (inactive) | 1.98 µM (inactive) | 16.7 µM (inactive) | 5.55 µM (inactive) | – | 17.4 µM (inactive) | 17.7 µM (inactive) | 10.8 µM (inactive) | 6.65 µM (inactive) | 6.76 µM (inactive) | 8.51 µM (inactive) | 4.88 µM (inactive) | 16.9 µM (inactive) | – | 5.21 µM (inactive) | 9.57 µM (inactive) | 10.9 µM (inactive) |
| COc1ccc([N+](=O)[O-])c2c(NCCCN(C)C)ccnc12 | 6.18 µM (inactive) | 2.21 µM (inactive) | 2.32 µM (inactive) | 4.93 µM (inactive) | 2.84 µM (inactive) | 6.71 µM (inactive) | – | 2.33 µM (inactive) | 3.66 µM (inactive) | 2.39 µM (inactive) | 10.8 µM (inactive) | 1.46 µM (inactive) | 3.61 µM (inactive) | 1.28 µM (inactive) | 10.2 µM (inactive) | 1.66 µM (inactive) | 15 µM (inactive) | 3.37 µM (inactive) | 1.78 µM (inactive) |
| CCOC(=O)c1ccc(-c2onc(C)c2Br)[nH]1 | > 100 µM (inactive) | 34.7 µM (inactive) | 46.8 µM (inactive) | 36.4 µM (inactive) | > 100 µM (inactive) | – | – | 49.9 µM (inactive) | 59.3 µM (inactive) | 50.2 µM (inactive) | 37.4 µM (inactive) | 51.9 µM (inactive) | 39.5 µM (inactive) | 41.7 µM (inactive) | 56.9 µM (inactive) | 22.7 µM (inactive) | – | 33 µM (inactive) | 23 µM (inactive) |
| C=C(C)[C@@H]1CC[C@]2(CO)CC[C@]3(C)[C@H](CC[C@@H]4[C@@]5(C)CC[C@H](O)C(C)(C)[C@@H]5CC[C@]43C)[C@@H]12 [BETULIN] | 25.1 µM (inactive) | 17.6 µM (inactive) | 94.8 µM (inactive) | 11.8 µM (inactive) | – | 14.6 µM (inactive) | 43 µM (inactive) | 21.5 µM (inactive) | 16.7 µM (inactive) | – | 12.5 µM (inactive) | 20.4 µM (inactive) | 14 µM (inactive) | 12.7 µM (inactive) | 17.1 µM (inactive) | 34.8 µM (inactive) | 34.5 µM (inactive) | 9.35 µM (inactive) | 16.7 µM (inactive) |
